What is called IC50 is the concentration needed to halve the response being measured. The EC50 is the midpoint of the concentration-response curve. By CC50 is commonly meant the concentration giving 50% cytotoxicity. Usually AC50 stands for the midpoint of the concentration-response curve, whichever way the signal moves.

One experiment concerns the target Genome polyprotein (dengue virus type 2, UniProt P29990). As to the kind of experiment: flavivirus cap methylation enzyme inhibition – biochemical, confirmation dose response, primary screen (AID 588689). In kind it is functional.
The target of experiment [1] is T1, Endoribonuclease toxin MazF (Escherichia coli K-12, UniProt P0AE70).
T1 sequence (P0AE70 whole entry): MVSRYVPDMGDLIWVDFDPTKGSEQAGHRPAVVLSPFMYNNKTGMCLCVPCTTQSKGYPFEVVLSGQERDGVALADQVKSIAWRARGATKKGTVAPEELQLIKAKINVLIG
Nature of the experiment: activation of MazEF endoribonuclease cleavage – biochemical, fluorescence, single-stranded RNA substrate, uHTS hits, dose response (AID 588481). In kind it is functional.

The test system of another experiment is Vero. As to the kind of experiment: viability of Vero cells under compound – cytotoxicity control for flavivirus capping enzyme inhibitors (AID 588742). The class given is functional. Particulars: Chlorocebus sabaeus.
In experiment [2] the target is T2, RNA-editing ligase 1, mitochondrial (Trypanosoma brucei brucei, UniProt P86926).
T2 sequence (P86926 whole entry): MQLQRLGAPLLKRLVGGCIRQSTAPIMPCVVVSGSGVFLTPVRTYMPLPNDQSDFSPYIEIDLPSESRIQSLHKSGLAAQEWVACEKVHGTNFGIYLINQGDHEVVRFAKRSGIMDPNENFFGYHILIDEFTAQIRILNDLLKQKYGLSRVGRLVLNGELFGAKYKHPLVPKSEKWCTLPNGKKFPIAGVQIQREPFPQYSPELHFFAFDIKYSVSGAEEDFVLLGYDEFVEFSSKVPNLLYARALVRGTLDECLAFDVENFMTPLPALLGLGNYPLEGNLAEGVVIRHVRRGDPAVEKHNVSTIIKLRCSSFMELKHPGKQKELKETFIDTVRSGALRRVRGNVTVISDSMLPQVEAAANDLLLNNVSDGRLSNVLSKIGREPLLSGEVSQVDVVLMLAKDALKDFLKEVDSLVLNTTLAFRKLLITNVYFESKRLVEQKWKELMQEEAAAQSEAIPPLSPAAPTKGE
As to the kind of experiment: inhibition of trypanosome RNA editing ligase – biochemical, fluorescence, Trypanosoma brucei, dose response (AID 1117295). In kind it is functional.

For experiment [3], the target named is T3, Replicative DNA helicase DnaB (Mycobacterium tuberculosis, UniProt P9WMR3).
T3 sequence (P9WMR3 whole entry): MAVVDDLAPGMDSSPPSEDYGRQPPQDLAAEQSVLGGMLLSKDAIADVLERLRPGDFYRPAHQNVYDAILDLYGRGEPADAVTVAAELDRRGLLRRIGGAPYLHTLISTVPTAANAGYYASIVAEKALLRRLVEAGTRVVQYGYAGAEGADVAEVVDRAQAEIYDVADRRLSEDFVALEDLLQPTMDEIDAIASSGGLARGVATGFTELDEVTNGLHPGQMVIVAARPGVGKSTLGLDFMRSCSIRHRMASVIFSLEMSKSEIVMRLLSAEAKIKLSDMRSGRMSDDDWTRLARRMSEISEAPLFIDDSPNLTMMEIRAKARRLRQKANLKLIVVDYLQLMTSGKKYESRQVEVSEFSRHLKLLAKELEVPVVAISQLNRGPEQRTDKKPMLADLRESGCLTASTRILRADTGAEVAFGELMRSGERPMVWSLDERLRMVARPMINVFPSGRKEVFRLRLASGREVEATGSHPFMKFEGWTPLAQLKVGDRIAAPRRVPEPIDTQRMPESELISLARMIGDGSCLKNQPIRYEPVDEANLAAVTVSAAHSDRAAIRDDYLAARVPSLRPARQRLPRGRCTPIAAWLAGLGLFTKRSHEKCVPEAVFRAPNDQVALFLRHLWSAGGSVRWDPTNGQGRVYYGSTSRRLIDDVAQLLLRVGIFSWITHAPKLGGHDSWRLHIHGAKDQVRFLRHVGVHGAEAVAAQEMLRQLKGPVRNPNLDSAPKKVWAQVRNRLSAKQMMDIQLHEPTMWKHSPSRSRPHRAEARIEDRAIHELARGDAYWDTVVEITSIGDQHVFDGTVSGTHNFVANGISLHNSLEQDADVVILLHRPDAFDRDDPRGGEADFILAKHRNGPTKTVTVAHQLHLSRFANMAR
Nature of the experiment: DnaB intein splicing inhibitors, dose response, biochemical, cell-free fluorescence (AID 449749). The class given is functional.

Experiment [4] in a line: viability of HCT116 lacking mutant beta-catenin – cell-based, human colon tumor, dose response (AID 1045).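 Further: HCT116 colon tumor cells with beta catenin knocked out; cells exposed to compound for 60 hours.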 The class given is functional.
For experiment [5], the target named is T4, Apoptotic protease-activating factor 1 (Homo sapiens, UniProt O14727).
T4 sequence (O14727 whole entry): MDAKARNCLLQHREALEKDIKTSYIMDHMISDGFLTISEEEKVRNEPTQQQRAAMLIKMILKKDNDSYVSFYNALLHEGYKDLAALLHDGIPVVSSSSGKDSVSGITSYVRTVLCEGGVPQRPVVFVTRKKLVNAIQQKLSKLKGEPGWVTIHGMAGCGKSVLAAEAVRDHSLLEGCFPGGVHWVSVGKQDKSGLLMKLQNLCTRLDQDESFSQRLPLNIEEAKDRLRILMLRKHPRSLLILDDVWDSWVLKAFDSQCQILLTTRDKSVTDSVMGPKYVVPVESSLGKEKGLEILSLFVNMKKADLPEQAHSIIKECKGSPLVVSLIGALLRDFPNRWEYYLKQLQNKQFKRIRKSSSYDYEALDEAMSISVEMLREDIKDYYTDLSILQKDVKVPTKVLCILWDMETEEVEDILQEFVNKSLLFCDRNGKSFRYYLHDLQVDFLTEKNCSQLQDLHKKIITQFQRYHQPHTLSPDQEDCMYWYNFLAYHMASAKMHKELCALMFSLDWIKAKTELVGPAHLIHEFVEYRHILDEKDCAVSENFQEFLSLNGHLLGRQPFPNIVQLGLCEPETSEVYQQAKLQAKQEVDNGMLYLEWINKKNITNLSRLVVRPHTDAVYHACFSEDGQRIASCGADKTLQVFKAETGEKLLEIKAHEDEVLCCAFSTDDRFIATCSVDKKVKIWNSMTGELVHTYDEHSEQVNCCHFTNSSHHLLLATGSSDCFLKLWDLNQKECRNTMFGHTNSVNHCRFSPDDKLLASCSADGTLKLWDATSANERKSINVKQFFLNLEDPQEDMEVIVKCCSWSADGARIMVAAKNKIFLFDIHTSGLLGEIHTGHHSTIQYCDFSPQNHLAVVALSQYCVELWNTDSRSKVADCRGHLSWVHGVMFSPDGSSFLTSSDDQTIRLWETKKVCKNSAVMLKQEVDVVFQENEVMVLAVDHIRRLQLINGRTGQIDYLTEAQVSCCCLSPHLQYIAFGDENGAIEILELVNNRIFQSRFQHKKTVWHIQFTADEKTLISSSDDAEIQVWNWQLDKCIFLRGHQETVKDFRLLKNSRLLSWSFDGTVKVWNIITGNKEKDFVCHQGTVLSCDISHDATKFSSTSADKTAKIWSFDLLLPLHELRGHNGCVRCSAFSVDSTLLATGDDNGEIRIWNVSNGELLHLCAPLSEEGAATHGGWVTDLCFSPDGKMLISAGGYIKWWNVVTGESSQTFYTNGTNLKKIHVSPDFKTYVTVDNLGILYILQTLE
In kind it is functional.

The target in the next experiment is Caspase-7 (Homo sapiens, UniProt P55210). As to the kind of experiment: caspase-7 enzyme inhibition, selectivity check – biochemical, DEVD-R110 fluorescence, cherry-pick, selectivity assay for caspase-6 inhibitor project, dose response (AID 743295). The class given is functional.
Sequence of Caspase-7 (P55210 24-198 limits assumed): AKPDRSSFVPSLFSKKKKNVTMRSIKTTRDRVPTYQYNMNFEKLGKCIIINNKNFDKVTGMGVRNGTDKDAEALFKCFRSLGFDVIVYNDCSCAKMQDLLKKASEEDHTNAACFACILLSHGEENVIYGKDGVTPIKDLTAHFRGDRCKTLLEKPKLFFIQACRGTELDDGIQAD
Sequence of Caspase-7 (P55210 207-303 limits assumed): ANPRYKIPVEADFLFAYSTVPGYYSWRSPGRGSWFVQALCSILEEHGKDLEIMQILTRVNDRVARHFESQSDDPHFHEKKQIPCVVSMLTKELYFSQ

SMILES strings stand for the structures. Activity calls are given as the source filed them.

Sequence of Genome polyprotein (P29990 2492-3391 limits assumed): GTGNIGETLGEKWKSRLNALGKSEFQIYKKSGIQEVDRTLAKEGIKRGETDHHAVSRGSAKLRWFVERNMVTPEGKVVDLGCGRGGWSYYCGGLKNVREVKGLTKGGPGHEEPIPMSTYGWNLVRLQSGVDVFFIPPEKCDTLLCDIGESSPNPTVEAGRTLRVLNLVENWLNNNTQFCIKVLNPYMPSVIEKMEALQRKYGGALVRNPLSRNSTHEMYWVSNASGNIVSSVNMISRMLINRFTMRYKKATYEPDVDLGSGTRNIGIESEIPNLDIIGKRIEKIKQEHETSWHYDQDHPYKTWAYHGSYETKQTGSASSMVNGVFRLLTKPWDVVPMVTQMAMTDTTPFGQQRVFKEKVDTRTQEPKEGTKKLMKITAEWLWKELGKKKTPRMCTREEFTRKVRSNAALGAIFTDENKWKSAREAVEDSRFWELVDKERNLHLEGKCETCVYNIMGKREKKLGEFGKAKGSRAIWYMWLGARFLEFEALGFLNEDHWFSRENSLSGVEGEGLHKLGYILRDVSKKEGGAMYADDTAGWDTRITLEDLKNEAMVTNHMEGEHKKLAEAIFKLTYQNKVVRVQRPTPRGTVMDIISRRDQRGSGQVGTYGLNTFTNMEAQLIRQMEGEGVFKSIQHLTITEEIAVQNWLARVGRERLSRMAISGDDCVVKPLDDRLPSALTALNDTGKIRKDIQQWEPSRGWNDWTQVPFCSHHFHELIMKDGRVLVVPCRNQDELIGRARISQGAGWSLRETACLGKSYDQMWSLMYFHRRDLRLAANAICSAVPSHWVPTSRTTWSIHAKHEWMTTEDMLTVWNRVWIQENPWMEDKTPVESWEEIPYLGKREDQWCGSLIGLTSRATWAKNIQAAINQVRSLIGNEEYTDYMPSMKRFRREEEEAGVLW

For `O=C(CCN1C(=O)/C(=C\c2ccco2)SC1=S)Nc1ccc(C(=O)O)c(O)c1`, at Genome polyprotein, the IC50 is > 100 µM (active).
For the compound `O=C1C=C(c2c(O)ccc3ccccc23)c2ccccc2C1=O`, the EC50 in experiment [1] was 7.31 µM (active). For the same compound, the CC50 with Vero was 22.1 µM (active). The IC50 at Genome polyprotein is 5.91 µM (active).
Take `Cc1nc2c(=O)n(C)c(=O)nc-2n(C)n1`: the half-inhibitory concentration (IC50) was 0.411 µM (active) in experiment [2] and 0.0375 µM (active) in experiment [5]. Also, in experiment [3], the AC50 was 0.0978 µM (active). In addition, the EC50 in experiment [4] was 0.781 µM (active).
On to `Oc1nc(Nc2ccccc2Cl)cc2ccccc12`, for which the AC50 at Caspase-7 is 12.2 µM (active); in experiment [3], 9.33 µM (active). Moreover, the IC50 in experiment [5] is 6.11 µM (active).
